Laboratory results taken from publication PMC5971303, “α-Amylase and α-Glucosidase Inhibitory Activities of Chemical Constituents from Wedelia chinensis (Osbeck.) Merr. Leaves” (Journal of Analytical Methods in Chemistry, 2018).

Tests used:
[1] = molecular target: T1, porcine pancreas α-amylase (Sus scrofa, UniProt P00690); assay: Assay for α-amylase inhibition (potato starch substrate, iodine, absorbance at 650 nm); format: biochemical; details: for α-amylase inhibitory effect (in words): compared with acarbose; for IC50: porcine pancreas α-amylase, tested three times, mean ± SD
T1 construct: purchased Sigma-Aldrich A3176
T1 sequence (P00690 16-511): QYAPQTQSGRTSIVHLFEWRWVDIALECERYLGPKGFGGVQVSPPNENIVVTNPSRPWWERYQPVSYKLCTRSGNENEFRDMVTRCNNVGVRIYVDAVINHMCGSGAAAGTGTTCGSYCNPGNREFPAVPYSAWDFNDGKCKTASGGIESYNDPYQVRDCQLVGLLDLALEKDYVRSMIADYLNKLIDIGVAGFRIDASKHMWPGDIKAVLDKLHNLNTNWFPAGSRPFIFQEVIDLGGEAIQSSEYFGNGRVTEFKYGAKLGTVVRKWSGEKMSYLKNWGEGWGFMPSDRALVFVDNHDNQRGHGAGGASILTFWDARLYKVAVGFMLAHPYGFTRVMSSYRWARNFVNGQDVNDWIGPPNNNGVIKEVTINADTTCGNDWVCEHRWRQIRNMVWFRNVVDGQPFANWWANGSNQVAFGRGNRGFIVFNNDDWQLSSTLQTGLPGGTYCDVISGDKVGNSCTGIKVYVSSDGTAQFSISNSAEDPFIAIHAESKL
Description: The substrate was prepared by boiling 100 mg potato starch in 5 mL phosphate buffer (pH 7.0) for 5 min and then cooling to room temperature. The sample ([…] dissolved in DMSO) and substrate ([…]) were mixed in […] of 0.1 M phosphate buffer (pH 7.0). After 5 min preincubation, 5 mg/mL α-amylase solution (20 mL) was added, and the solution was incubated at 37°C for 15 min. The reaction was stopped by adding […] of 1 M·HCl, and then, […] of iodine solution was added. The absorbances were measured at 650 nm by a microplate reader. […] The inhibitory activity was calculated by the following equation: α-amylase inhibitory activity (%) = (1–A/A0) × 100, where A is the absorbance of the sample and A0 is the absorbance of the blank, respectively. The IC50 value was calculated by GraphPad Prism.
(§1) Inhibition of α-glucosidase is one very effective way of delaying glucose absorption and lowering the postprandial blood glucose level, which can potentially suppress the progression of DM.

[2] = tested on: yeast α-glucosidase; assay: Assay for α-glucosidase inhibition (p-nitrophenyl-α-D-glucopyranoside substrate, absorbance at 405 nm); format: biochemical; details: for α-glucosidase inhibitory effect (in words): compared with acarbose; for α-Glucosidase IC50 ± SD: tested three times, mean ± SD
Description: The yeast α-glucosidase (G0660, Sigma-Aldrich) inhibition assay was performed using the substrate p-nitrophenyl-α-D-glucopyranoside according to the previously described method. […] After 5 min preincubation, 5 mM p-nitrophenyl-α-D-glucopyranoside solution ([…]) was added, and the solution was incubated at 37°C for 30 min. […]. Each concentration of samples was carried out in triplicate. The absorbance of released 4-nitrophenol was measured at 405 nm by using a microplate reader (xMark, Bio-Rad, USA). […] The inhibitory activity was calculated by the following equation: α-glucosidase inhibitory activity (%) = (1–A/A0) × 100, where A is the absorbance of the sample and A0 is the absorbance of the blank, respectively. The IC50 value was calculated by GraphPad Prism.
as §1

Row | Compound | α-amylase inhibitory effect (in words) [1] | IC50 [1] | α-glucosidase inhibitory effect (in words) [2] | α-Glucosidase IC50 ± SD ([2]; yeast α-glucosidase) | α-Glucosidase inhibition (symbol in IC50 column) ([2]; yeast α-glucosidase, dash = no inhibition (less than 10% inhibition))
1 | CC(O)C=CC12OC1(C)C(O)C(OS(=O)(=O)O)CC2(C)C [Compound 1, (3S,4R,5R,6S,9S,7E)-megastigman-5,6-epoxy-7-ene,4,9-diol,3-sulfonic acid] | moderate | 1350 µM | moderate | 915.6 ± 36.5 µg/mL | 
2 | COc1cc(-c2cc(=O)c3c(O)c(OC)c(O)cc3o2)ccc1O [Compound 7, jaceosidin] |  | 342 µM |  | 785.9 ± 12.7 µg/mL | 
3 | C[C@@H]1CC[C@]2(C(=O)O)CC[C@]3(C)C(=CC[C@@H]4[C@@]5(C)CCC(=O)C(C)(C)[C@@H]5CC[C@]43C)[C@@H]2[C@]1(C)O [Compound 8, pomonic acid] | moderate | 894 µM | moderate |  | — ((‒): no inhibition (less than 10% inhibition))
4 | C[C@@H]1CC[C@]2(C(=O)O)CC[C@]3(C)C(=CC[C@@H]4[C@@]5(C)CC[C@H](O)C(C)(C)[C@@H]5CC[C@]43C)[C@@H]2[C@]1(C)O [Compound 9, pomolic acid] | moderate | 837 µM | moderate | 821.4 ± 55.2 µg/mL | 
